Source: ChEMBL document CHEMBL1158814, “Lehualides A-D, metabolites from a Hawaiian sponge of the genus Plakortis” (J Nat Prod, 2005)
≈ marks a conversion by molar mass, not a printed value.

Assays:
[1] = Toxicity against brine shrimp; assay type: organism-based; conditions: artemia, in vivo; read-out: LD50 (the source's name)
[2] = Cytotoxicity against human IGROV-ET cells; assay type: functional
K562 = assay: Cytotoxicity against human K562 cells; assay type: functional

Compound	LC50 [1] [µg/mL]	GI50 [2] [nM]	GI50 (K562) [nM]
COc1c(O)c(C)c(C/C=C(\C)CC/C=C(/C)C/C(C)=C/Cc2ccccc2)oc1=O [LEHUALIDE A]	50 (≈ 118 µM)		
COc1oc(C/C=C(\C)CC/C=C(/C)C/C(C)=C/Cc2ccccc2)c(C)c(=O)c1OC [LEHUALIDE B]	15 (≈ 34.4 µM)	830	
COc1oc(C/C=C(\C)CCCCCCCCCSC(C)=O)c(C)c(=O)c1OC [LEHUALIDE C]	15 (≈ 35.3 µM)		
COc1oc(C/C=C(\C)CCCCCCCCCS)c(C)c(=O)c1OC [LEHUALIDE D]	15 (≈ 39.2 µM)	730	230
